Laboratory results: US20160046665A1, “Peptide Ligand with Antibody Selectivity and the Application Thereof” (National Central University, priority 2014, published 2016)
Entries after “also recorded” stand apart in the source; their conditions may differ.

Tests used:
Assay type in all cases: binding
PSA = test: SPR sensitivity detection with micro concentration antigen, chip with Rabbit IgG; conditions: Rabbit IgG absorbed on chip, Rabbit IgG flowed again for increasing signal, FIG. 7A
Excerpt: In the following experiments, antigen in micro concentration is employed for detecting the sensitivity of peptide ligand chips being able to recognize Rabbit IgG and Mouse IgG2a, and the experimental results are shown in FIG. 7A and FIG. 7B.
Firstly, Rabbit IgG and Mouse IgG2a are respectively absorbed to GGEGELW and GGRRGW. After flowing micro concentration antigen through, Rabbit IgG and Mouse IgG2a are flowed through the chip surface for increasing the detected signal. […] According to FIG. 7A and FIG. 7B, the signal of about 2 ng/mL PSA can be detected from Mouse IgG2a of GGRRGW chip surface, and the signal of about 1 ng/mL PSA can be detected from Rabbit IgG of GGEGELW chip surface. Therefore, it proves that the peptide ligand of this specification can efficiently improve the antigen sensitivity.

Mouse IgG2a [1] = test: SPR absorption of Mouse IgG2a on different chip surfaces; conditions: FIG. 2
Excerpt: (§1) In this and the following examples, we employ Surface Plasmon resonance (SPR) as detecting equipment. The method for modifying SPR chip surface is briefly illustrated as following.
(§2) OEG [(11-Mercaptoundecyl)tetra(ethyleneglycol)] and OEG-COOH [HS(CH2)11(EG)6OCH2COOH] are mixed at the ratio of 10:1. Through strong gold-sulfur bonding, OEG and OEG-COOH are employed for modifying SPR chip surface to form mixed SAM (self-assembly monolayer). The mixed SAM surface comprises carboxyl group with negative charge, and hydroxyl group with hydrophilicity. The carboxyl group with negative charge on the SPR chip surface can be activated by EDC/20% DMSO. By reacting the 1° amino group of EDA (ethylenediamine) with the carboxyl group on the SPR chip surface to form amide bonding, the SPR chip surface can be modified into positive charge. And, in the same condition, the peptide ligand according to this invention can be grafted onto the SPR chip surface to form a peptide ligand surface.)
(§3) 1. 5 mM peptide ligand, 200 mM EDC, and 20% DMSO are prepared into 0.1 M pH=6.0 MES buffer solution.
(§4) In the above experiments, Surface Plasmon Resonance (SPR) is employed for measuring the antigen recognition efficiency of antibody on different modified chip surfaces. The recognition efficiency of Rabbit IgG and PSA on different chip with different charge surface and different peptide ligand is detected. […]

[2] = system: prostate specific antigen (PSA); test: SPR PSA absorption / antigen recognition on chip surfaces with Rabbit IgG; conditions: FIG. 4A
Excerpt: (§5) In this example, SPR is employed for measuring the absorption of target antibody, rabbit immunoglobulin (Rabbit IgG), and target antigen, prostate specific antigen (PSA), on different charge surfaces and different peptide ligand surfaces. The mentioned different chip surfaces are employed for absorbing Rabbit IgG, washed with phosphate buffer (PB) solution, and employed to absorb PSA directly. Then, PB buffer solution is used to wash out the PSA not recognized by Rabbit IgG for measuring the absorption of antibody and antigen. The experimental process is roughly shown as following.
(§6) 1. 10 μg/mL Rabbit IgG is prepared in 0.01 M pH=7.4 PB buffer solution.
2. 5 μg/mL PSA is prepared in 0.01 M pH=7.4 PB buffer solution.
3. The negative charge, positive charge, and peptide ligand modified chips are put on SPR respectively.
4. The flow rate is set at 20 μL/min.
5. Rabbit IgG, PB, PSA, and PB are flowed through the channel in sequence. The absorption time is about 60 minutes, and the desorption time is about 50 minutes.
(§7) Different chips with Rabbit IgG and Mouse IgG2a are used for PSA absorption experiment, and the PSA absorption is transferred to protein absorption by the above-mentioned formula, as shown in FIG. 3A and FIG. 3B.
(§8) In order to compare antigen recognition efficiency, we define “antigen recognition efficiency” as following: […]

Mouse IgG2a [3] = test: SPR analysis of antibody oriented immobilization (orientation factor), Mouse IgG2a; conditions: ratio of PSA and 2nd antibody, FIG. 6B
Target sequence in this assay (P01863 98-330 limits assumed): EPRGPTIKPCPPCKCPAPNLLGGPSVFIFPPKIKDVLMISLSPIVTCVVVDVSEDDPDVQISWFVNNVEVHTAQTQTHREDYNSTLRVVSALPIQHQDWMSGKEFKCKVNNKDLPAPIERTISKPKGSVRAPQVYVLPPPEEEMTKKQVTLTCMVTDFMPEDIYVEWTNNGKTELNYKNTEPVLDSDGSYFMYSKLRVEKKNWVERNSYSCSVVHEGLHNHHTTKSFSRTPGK

Rabbit IgG = test: SPR absorption of Rabbit IgG on different chip surfaces
Excerpt: as §1, §2, §3, §5, §6
3. […]
as §4

[4] = system: prostate specific antigen (PSA); test: SPR PSA absorption / antigen recognition on chip surfaces with Mouse IgG2a
Excerpt: as §5, §7, §8

Chain of Rabbit IgG (P01870 101-323 limits assumed): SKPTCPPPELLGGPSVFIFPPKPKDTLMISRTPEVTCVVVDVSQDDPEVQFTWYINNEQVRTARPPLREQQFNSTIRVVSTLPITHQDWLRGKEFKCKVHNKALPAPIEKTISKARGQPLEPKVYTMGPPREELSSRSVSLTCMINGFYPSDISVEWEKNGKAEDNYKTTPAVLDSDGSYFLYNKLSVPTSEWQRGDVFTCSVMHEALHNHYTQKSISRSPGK

Substance | PSA concentration whose signal can be detected by SPR (PSA) | Mouse IgG2a absorption on chip surface (in words) (Mouse IgG2a [1]) | antigen recognition efficiency of Rabbit IgG [2] | orientation factor, chip surface with Mouse IgG2a (Mouse IgG2a [3]) | specificity to these antibodies (Rabbit IgG; Rabbit IgG versus Mouse IgG2a absorption, FIG. 1B compared with FIG. 2) | Rabbit IgG absorption on chip surface (in words) (Rabbit IgG; SPR, FIG. 1B) | Rabbit IgG absorption to the chip surface (Rabbit IgG; SPR, peptide ligand chip surface, FIG. 3A) | antigen recognition efficiency of Mouse IgG2a ([4]; PSA, FIG. 4B) | PSA absorption on chip surface with Mouse IgG2a (in words) ([4]; SPR, FIG. 3B) | oriented immobilization of Mouse IgG2a on chip surface ([4]; deduced from Mouse IgG2a and PSA absorption)
GGEGELW | about 1 ng/mL | – | – | – | – | – | – | – | – | –
RRGW | – | great; also recorded: higher | not good | good | does not have specificity | not much difference; also recorded: great | about 0.2 mol/cm^2 | great | great | great
